According to PubChem BioAssay (NCI):
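Each compound was tested at five concentrations against cells in 96-well plates for 48 hours. At the GI50, growth is halved. TGI: total growth inhibition.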

Legend:
Test in all cases: inhibition of tumour cell growth, NCI panel, 48 h
[1] = test system: SF-268 CNS
[2] = test system: HCC-2998 colon
[3] = test system: SN12C renal
[4] = test system: SF-539 CNS
[5] = test system: KM12 colon
[6] = test system: A549 NSCLC
[7] = test system: NCI-H23 lung
[8] = test system: RXF 393 renal
[9] = test system: TK-10 renal
[10] = test system: HOP-92 NSCLC

| Structure (SMILES) | TGI [1] [µM] | TGI [2] [µM] | TGI [3] [µM] | TGI [4] [µM] | TGI [5] [µM] | TGI [6] [µM] | TGI [7] [µM] | TGI [8] [µM] | TGI [9] [µM] | TGI [10] [µM] | GI50 [1] [µM] | GI50 [2] [µM] | GI50 [3] [µM] | GI50 [4] [µM] | GI50 [6] [µM] | GI50 [7] [µM] | GI50 [10] [µM] | GI50 [9] [µM] | GI50 [5] [µM] | GI50 [8] [µM] |
| --- | --- | --- | --- | --- | --- | --- | --- | --- | --- | --- | --- | --- | --- | --- | --- | --- | --- | --- | --- | --- |
| CCOC(=O)C1=C(C)N(C2OC(COC(C)=O)C(OC(C)=O)C(OC(C)=O)C2OC(C)=O)C(=O)NC1c1ccccc1 (stereo not drawn) | > 100 | > 100 | > 100 | > 100 | > 100 | > 100 | > 100 |  |  |  |  |  |  |  |  |  |  |  |  |  |
| CSS(C)(=O)=O | 96.9 | 71.2 | 45.3 | 37 | 87.1 | > 100 | 50.5 | 59.6 | 46 |  |  |  |  |  |  |  |  |  |  |  |
| CCCCCCC(=O)c1ccc2ccccc2c1O | > 100 | > 100 |  | > 100 | > 100 |  | > 100 | 74.4 | > 100 | > 100 |  |  |  |  |  |  |  |  |  |  |
| COc1ccc(-c2c3c(nc4[nH]c(=S)[nH]c(=S)c24)CCCC3)cc1OC | > 100 |  | 86.2 | 28.6 | > 100 | 59 | > 100 | 57.9 | > 100 |  |  |  |  |  |  |  |  |  |  |  |
| CCCCn1c(C)c2c(c1C)C(=O)N(CCN1CCN(c3ccccc3Cl)CC1)C2=O | 32.4 | 72.5 | 61.3 | 38 | > 100 | > 100 | 85.4 |  | > 100 | 68.5 |  |  |  |  |  |  |  |  |  |  |
| CCOC(=O)/C=C/c1c[nH]c(=O)[nH]c1=O | > 75 | > 75 | > 75 | > 75 | > 75 | > 75 | > 75 | > 75 |  | > 75 |  |  |  |  |  |  |  |  |  |  |
| c1ccc(N2N=C3N(c4ccccc4)C2N3c2ccccc2)cc1 | > 100 | 77.5 | > 100 | 74.9 | > 100 | > 100 | > 100 | > 100 | > 100 | 60.8 |  |  |  |  |  |  |  |  |  |  |
| C=CCOC1OC(CS(=O)(=O)O)C(OC(C)=O)C(OC(C)=O)C1OC(C)=O (stereo not drawn) |  | > 100 | > 100 |  | > 100 |  | > 100 | > 100 | > 100 | > 100 |  |  |  |  |  |  |  |  |  |  |
| CC(=O)OCc1nnn2c1CCC2 |  | > 100 | > 100 | > 100 | > 100 | > 100 |  | > 100 | > 100 | > 100 |  |  |  |  |  |  |  |  |  |  |
| CCCCCCCCCC[N+](C)(C)C | 5.77 | 3.53 | 8.66 | 5.9 |  | 8.43 | 6.34 |  | 3.27 | 4.6 | 1.98 | 1.58 | 2.95 | 2.17 | 2.52 | 2 | 0.677 | 1.42 |  |  |
| COc1c2occc2cc2ccc(=O)oc12 | > 100 | > 100 | > 100 | > 100 | > 100 | > 100 | > 100 | > 100 | > 100 | > 100 | > 100 |  |  |  |  |  |  |  | > 100 | > 100 |
| COc1ccc(OCC(C)(C)O)cc1 | > 100 | > 100 | > 100 | > 100 | > 100 | > 100 | > 100 | > 100 |  | > 100 |  |  |  |  |  |  |  |  |  |  |
